Assay results: paper PMC7093416, “Selective USP7 inhibition elicits cancer cell killing through a p53-dependent mechanism” (Scientific Reports, 2020)

System: panel of 484 cancer cell lines
Assay: PRISM cancer cell line profiling, 5 days
Assay type: cell-based
Parameters: AUC: unit not given beside the values
Protocol: Cancer cell line profiling was performed using the Broad’s PRISM platform. Cell treatment and data analysis were performed as described in Yu et al[42]. Raw Luminex signal was converted to AUC values for each cell line as described. The resulting AUC profile for each compound was modeled against DepMap using the limma package in R[71]. Because hotspot mutation analysis was performed against DepMap, TP53 annotations in Fig. 6c,d are directly from DepMap.

CN1CCN(CCC(=O)Nc2ccc3c(=O)n(CC4(O)CCN(C(=O)[C@@H](CCCNC(=O)c5ccc6c(Cl)c7c(nc6c5)CCCC7)Cc5ccccc5)CC4)cnc3c2)CC1 [XL177A]
AUC (MG63_BONE): 1.147 | AUC (MHHES1_BONE): 0.9854 | AUC (MIAPACA2_PANCREAS): 0.7815 | AUC (MKN1_STOMACH): 1.271 | AUC (MKN7_STOMACH): 0.8494 | AUC (MKN45_STOMACH): 0.5723 | AUC (MKN74_STOMACH): 0.9306 | AUC (MON_SOFT_TISSUE): 0.2802 | AUC (MPP89_PLEURA): 1.207 | AUC (MSTO211H_PLEURA): 0.9069 | AUC (NB1_AUTONOMIC_GANGLIA): 0.8293 | AUC (NCIH23_LUNG): 0.7147 | AUC (NCIH28_PLEURA): 1.117 | AUC (NCIH226_LUNG): 0.8849 | AUC (NCIH292_LUNG): 1.012 | AUC (NCIH322_LUNG): 0.9977 | AUC (NCIH358_LUNG): 0.842 | AUC (NCIH446_LUNG): 1.125 | AUC (NCIH460_LUNG): 1.082 | AUC (NCIH520_LUNG): 1.357 | AUC (NCIH522_LUNG): 0.9146 | AUC (NCIH596_LUNG): 0.8559 | AUC (NCIH650_LUNG): 0.8175 | AUC (NCIH661_LUNG): 1.081 | AUC (NCIH727_LUNG): 1.196 | AUC (NCIH747_LARGE_INTESTINE): 0.9621 | AUC (NCIH838_LUNG): 0.9473 | AUC (NCIH841_LUNG): 0.967 | AUC (NCIH1048_LUNG): 1.077 | AUC (NCIH1299_LUNG): 1.101 | AUC (NCIH1339_LUNG): 0.9923 | AUC (NCIH1355_LUNG): 0.948 | AUC (NCIH1373_LUNG): 0.8577 | AUC (NCIH1435_LUNG): 1.156 | AUC (NCIH1437_LUNG): 0.9262 | AUC (NCIH1563_LUNG): 0.7202 | AUC (NCIH1568_LUNG): 0.8953 | AUC (NCIH1573_LUNG): 1.235 | AUC (NCIH1581_LUNG): 0.9829 | AUC (NCIH1623_LUNG): 0.9673 | AUC (NCIH1648_LUNG): 0.9409 | AUC (NCIH1650_LUNG): 0.8271 | AUC (NCIH1651_LUNG): 1.042 | AUC (NCIH1693_LUNG): 0.9884 | AUC (NCIH1703_LUNG): 1.041 | AUC (NCIH1792_LUNG): 1.0161 | AUC (NCIH1793_LUNG): 1.096 | AUC (NCIH1838_LUNG): 0.9778 | AUC (NCIH1915_LUNG): 0.9037 | AUC (NCIH1944_LUNG): 0.9736 | AUC (NCIH1975_LUNG): 0.923 | AUC (NCIH2009_LUNG): 0.7912 | AUC (NCIH2023_LUNG): 1.0442 | AUC (NCIH2030_LUNG): 1.09 | AUC (NCIH2052_PLEURA): 0.7196 | AUC (NCIH2077_LUNG): 1.06 | AUC (NCIH2087_LUNG): 0.9147 | AUC (NCIH2110_LUNG): 1.049 | AUC (NCIH2122_LUNG): 0.751 | AUC (NCIH2126_LUNG): 0.9474 | AUC (NCIH2170_LUNG): 1.032 | AUC (NCIH2172_LUNG): 1.068 | AUC (NCIH2228_LUNG): 0.9446 | AUC (NCIH2347_LUNG): 0.9414 | AUC (NCIH2444_LUNG): 0.981 | AUC (NCIH2452_PLEURA): 1.231 | AUC (NCIN87_STOMACH): 1.289 | AUC (NUGC3_STOMACH): 0.9146 | AUC (NUGC4_STOMACH): 0.8113 | AUC (OAW42_OVARY): 0.9061 | AUC (OC314_OVARY): 1.051 | AUC (OC316_OVARY): 1.076 | AUC (OE19_OESOPHAGUS): 1.108 | AUC (OE21_OESOPHAGUS): 0.9739 | AUC (OE33_OESOPHAGUS): 1.005 | AUC (ONCODG1_OVARY): 0.9121 | AUC (ONS76_CENTRAL_NERVOUS_SYSTEM): 0.7482 | AUC (OSRC2_KIDNEY): 0.9599 | AUC (OUMS23_LARGE_INTESTINE): 0.9942 | AUC (OV56_OVARY): 0.9082 | AUC (OVCAR8_OVARY): 1.07 | AUC (OVISE_OVARY): 0.8469 | AUC (OVK18_OVARY): 0.8349 | AUC (OVSAHO_OVARY): 0.9469 | AUC (OVTOKO_OVARY): 1.103 | AUC (PANC1_PANCREAS): 0.8692 | AUC (PANC0203_PANCREAS): 0.8971 | AUC (PANC0327_PANCREAS): 1.196 | AUC (PANC0403_PANCREAS): 1 | AUC (PANC0813_PANCREAS): 0.9365 | AUC (PANC1005_PANCREAS): 1.142 | AUC (PATU8902_PANCREAS): 1.125 | AUC (PATU8988S_PANCREAS): 1.237 | AUC (PATU8988T_PANCREAS): 0.9888 | AUC (PC3_PROSTATE): 0.9272 | AUC (PC14_LUNG): 0.8983 | AUC (PECAPJ15_UPPER_AERODIGESTIVE_TRACT): 0.8461 | AUC (PECAPJ41CLONED2_UPPER_AERODIGESTIVE_TRACT): 0.7551 | AUC (PECAPJ49_UPPER_AERODIGESTIVE_TRACT): 0.693 | AUC (PK1_PANCREAS): 1.009 | AUC (PK45H_PANCREAS): 1.081 | AUC (PK59_PANCREAS): 1.041 | AUC (PLCPRF5_LIVER): 1.069 | AUC (PSN1_PANCREAS): 0.9727 | AUC (QGP1_PANCREAS): 1.095 | AUC (RCC10RGB_KIDNEY): 1.14 | AUC (RCM1_LARGE_INTESTINE): 1.19 | AUC (RD_SOFT_TISSUE): 0.8902 | AUC (RERFLCAD1_LUNG): 1.191 | AUC (RERFLCAD2_LUNG): 1.139 | AUC (RERFLCAI_LUNG): 0.8829 | AUC (RERFLCKJ_LUNG): 0.8002 | AUC (RERFLCMS_LUNG): 1.045 | AUC (RH30_SOFT_TISSUE): 0.9309 | AUC (RKN_SOFT_TISSUE): 0.8534 | AUC (RKO_LARGE_INTESTINE): 0.7552 | AUC (RL952_ENDOMETRIUM): 0.9781 | AUC (RMGI_OVARY): 0.9543 | AUC (RMUGS_OVARY): 0.8888 | AUC (RT4_URINARY_TRACT): 1.356 | AUC (RT112_URINARY_TRACT): 1.227
